Data published in the NIST ThermoML archive (doi:10.1016/j.jct.2016.11.017).
± gives the expanded uncertainty stated by the source.

Assays:
[1] = Crystal; DTA
[2] = Molar enthalpy of transition or fusion; details: Crystal; DSC

## C[C@@H]1CC[C@@]2(OC1)O[C@H]1C[C@H]3[C@@H]4CC=C5C[C@@H](O)CC[C@]5(C)[C@H]4CC[C@]3(C)[C@H]1[C@@H]2C [Diosgenin]
[1]
  Normal melting temperature: 201.2 ± 0.4 °C
[2]
  Molar enthalpy of transition or fusion: 12.5 ± 0.335 kcal/mol

## C[C@]12CC[C@@H]3c4ccc(O)cc4CC[C@H]3[C@@H]1C[C@@H](O)[C@@H]2O [Estriol]
[1]
  Normal melting temperature: 280.1 ± 0.4 °C
[2]
  Molar enthalpy of transition or fusion: 10.2 ± 0.287 kcal/mol
